Data from US20070009544A1, “Anti-allergic complex molecules” (priority 1999, published 2007).
≈ marks a conversion by molar mass, not a printed value. Entries after “also recorded” stand apart in the source; their conditions may differ. Where two headings read alike, the source gives them in different places. Numbered stars: 1 amine (or outer) side, 2 acyl side, 3 side chain; on linkers, the order of the positions; unused ones are H or OH. Peptide text beside a SMILES is read from it. Suc = O=C(CCC(=O)[*:2])[*:1]

How the values were obtained:
[1] = system: purified rat peritoneal mast cells; type: cell-based
Outline: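 Intact purified rat peritoneal mast cells were incubated at 37° C with increasing peptide concentrations, then stimulated with 5 μg/ml compound 48/80 (maximal release). Histamine secretion is expressed as % of total cellular histamine after subtracting spontaneous release, as the mean of duplicates.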

[2] = system: rat peritoneal mast cells; assay: Inhibition of IgE dependent (DNP-specific IgE / DNP-BSA) histamine secretion; type: cell-based
Experimental: Peptides 2 and 2-Suc were also tested in vitro for their ability to block histamine secretion from rat peritoneal mast cells, in response to the IgE-dependent mechanism. The IgE dependent pathway is activated in response to an immunological trigger, brought about by aggregation of the high affinity receptors (FeεRI) for IgE, which are present on the cell surface of mast cells. This response involves crosslinking of cell bound IgE antibodies by the corresponding antigens (allergens).
Isolated, purified mast cells were sensitized in the presence of a monoclonal DNP-specific IgE antibody (1 μg/10^6 cells) for 1 hour at 37° C. The cells were washed 3 times and incubated for 2 hours with different concentrations of each peptide, followed by triggering with the antigen DNP-BSA (100 ng/ml) in the presence of Brain Extract (0.1 mg/ml), for 20 min. at 37° C. Placing the tubes in ice terminated the reaction. The amount of histamine released from the cells was monitored.

[3] = Peptide solubility (remarks; assay medium, Tyrode buffer); type: physicochemical
[4] = system: abdominal skin of C.R rats; assay: Rat skin test: intradermal injection of peptide, then intradermal compound 48/80 or vehicle, wheal area; type: in vivo; conditions: for Mean Wheal Area ± STD, Vehicle: vehicle instead of compound 48/80
Outline: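 Peptide was injected intradermally (20 μl, in 10% DMSO/saline) at 20 or 200 μg; after 0.5 or 1 h, 20 μl compound 48/80 (0.1 mg/ml) or vehicle was injected intradermally at the same site. Wheal outlines were traced and areas measured by planimeter, reported as mean wheal area.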

[5] = system: purified rat peritoneal mast cells; assay: Histamine secretion from intact mast cells incubated with peptide alone (secretagogue side effect)
[6] = system: purified rat peritoneal mast cells

## CC(C)C[C@H](NC(=O)CNC(=O)[C@H](CS)NC(=O)[C@H](CCC(=O)O)NC(=O)[C@H](CCCCN)NC(=O)[C@H](CC(C)C)NC(=O)[C@H](CC(N)=O)NC(=O)[C@H](CC(N)=O)NC(=O)[C@H](CCCCN)NC(=O)[C@@H]1CCCN1C(=O)[C@H](C)NC(=O)[C@H](CC(C)C)NC(=O)[C@H](CC(C)C)NC(=O)[C@H](C)NC(=O)[C@H](CC(C)C)NC(=O)[C@H](CC(C)C)NC(=O)[C@@H](NC(=O)[C@H](C)NC(=O)[C@@H]1CCCN1C(=O)[C@H](CC(C)C)NC(=O)[C@H](CC(C)C)NC(=O)[C@H](C)NC(=O)[C@@H](NC(=O)[C@H](C)NC(=O)[C@H](C)NC(=O)CCC(=O)O)C(C)C)C(C)C)C(=O)N[C@@H](Cc1ccc(O)cc1)C(=O)O [Peptide 2-Suc] (Suc-AAVALLPAVLLALLAPKNNLKECGLY-OH; C-terminus assumed)
[1]
  IC50, compound 48/80 induced histamine secretion: 200 µg/mL (≈ 72 µM)
[1]; 600 μg/ml peptide, compound 48/80 concentration not given
  maximal inhibition of compound 48/80 induced histamine secretion: 80%
[1]; Table 1, incubation with different concentrations of each peptide, then induction of the allergic reaction
  Inhibitor (degree of inhibition of histamine secretion from mast cells): +++ (+++ Potent inhibitor (>85% inhibition))
[2]; 600 μg/ml peptide, DNP-BSA 100 ng/ml
  inhibition of IgE induced histamine secretion: 90%
[2]; DNP-specific IgE, DNP-BSA
  block of histamine secretion activated by an immunological trigger: effectively block histamine secretion
[3]
  solubility: more soluble in the assay medium, as compared to peptide 2
[4]; intradermal peptide
  block of compound 48/80 induced allergic reaction in vivo, rat skin: less effective than peptide 2
[4]; intradermal peptide 1 mg/ml, 0.5 hour before allergic induction
  Mean Wheal Area ± STD, Compound 48/80: 93.4 ± 32.0 (n = 11) mm^2
[4]; intradermal peptide 1 mg/ml, 0.5 hour before
  Mean Wheal Area ± STD, Vehicle: 56.8 ± 24.1 (n = 11) mm^2
[4]; intradermal peptide 1 mg/ml, 1 hour before allergic induction
  Mean Wheal Area ± STD, Compound 48/80: 89.3 ± 30.1 (n = 12) mm^2
[4]; intradermal peptide 1 mg/ml, 1 hour before
  Mean Wheal Area ± STD, Vehicle: 57.7 ± 23.2 (n = 12) mm^2
[4]; intradermal peptide 10 mg/ml, 0.5 hour before allergic induction
  Mean Wheal Area ± STD, Compound 48/80: 73.8 ± 28.7 (n = 10) mm^2
[4]; intradermal peptide 10 mg/ml, 0.5 hour before
  Mean Wheal Area ± STD, Vehicle: 57.2 ± 21.7 (n = 10) mm^2
[4]; intradermal peptide 10 mg/ml, 1 hour before allergic induction
  Mean Wheal Area ± STD, Compound 48/80: 78.1 ± 28.3 (n = 12) mm^2
[4]; intradermal peptide 10 mg/ml, 1 hour before
  Mean Wheal Area ± STD, Vehicle: 54.3 ± 25.8 (n = 12) mm^2
[4]; intradermal peptide 0.5 hour before allergic induction
  reduction of compound 48/80 induced allergic reaction: significantly reduced the wheal
[4]; intradermal peptide, lower dose or 1 hour before allergic induction
  reduction of compound 48/80 induced allergic reaction: had no effect
[5]; Table 1, peptide alone, no allergen
  Secretagogue (histamine secretion following incubation of mast cell with different concentrations of each peptide): −
[5]; no additional allergen
  histamine secretion from mast cells on incubation with increasing concentrations of peptide alone: did not induce histamine secretion; also recorded: no stimulatory effect

## VTVLALGALAGVGVGPKNNLKECGLY [WALL010]
[1]; 200 μg/ml peptide
  maximal inhibition of compound 48/80 induced histamine release: 16.7%
[6]
  Secretagogue (histamine secretion following incubation of mast cell with different concentrations of each peptide): +
  histamine secretion from mast cells on incubation with increasing concentrations of peptide alone: resulted in histamine secretion
